The target of series [1] is T1, enzymatically active free PSA (Homo sapiens, UniProt P07288).
T1 construct: enzymatically active free PSA
Nature of the series: Recognition of oligopeptide-doxorubicin conjugates by free PSA (HPLC, time to 50% cleavage). The conditions noted are these: conjugate added to PSA at a molar ratio of 100 to 1 in PSA digestion buffer; free conjugate tested. It counts as biochemical. The protocol:
The conjugates prepared as described in Examples 3-5 were individually dissolved in PSA digestion buffer (12 mM tris(hydroxymethyl)-aminomethane pH8.0, 25 mM NaCl, 0.5 mM CaCl2) and the solution added to PSA at a molar ration of 100 to 1. Alternatively, the PSA digestion buffer utilized is 50 mM tris(hydroxymethyl)-aminomethane pH7.4, 140 mM NaCl. The reaction is quenched after various reaction times by the addition of trifluoroacetic acid (TFA) to a final 1% (volume/volume). Alternatively the reaction is quenched with 10mM ZnCl2. The quenched reaction was analyzed by HPLC on a reversed-phase C18 column using an aqueous 0.1%TFA/acetonitrile gradient. […] If no salt is indicated for the conjugate, the free conjugate was tested. The oligopeptide-cytotoxic agent conjugates described in Examples 4 and 5 were assessed for the amount of time (in minutes) required for 50% cleavage of the oligopeptide with enzymatically active free PSA and 50% cleavage occurred in less than 2 hours for those conjugates.

The subject of series [2] is LNCap prostate tumor cells (which express enzymatically active PSA). Nature of the series: In vitro cytotoxicity of peptidyl derivatives of doxorubicin, Alamar Blue assay, LNCaP cells. It counts as cell-based. The conditions noted are these: 72 HRS incubation, free conjugate tested, read-out: LNCaP Cell Kill in 72 HRS EC 50. The protocol:
(§1) The cytotoxicities of the cleaveable oligopeptide-doxorubicin conjugates, prepared as described in Examples 3 and 4, against a line of cells which is known to be killed by unmodified doxorubicin were assessed with an Alamar Blue assay. Specifically, cell cultures of LNCap prostate tumor cells (which express enzymatically active PSA) or DuPRO cells in 96 well plates was diluted with medium ([…]-α [MEM-α]) containing various concentrations of a given conjugate (final plate well volume of 200µl). The cells were incubated for 3 days at 37°C, 20µl of Alamar Blue is added to the assay well. The cells were further incubated and the assay plates were read on a EL-310 ELISA reader at the dual wavelengths of 570 and 600 nm at 4 and 7 hours after addition of Alamar Blue. Relative percentage viability at the various concentration of conjugate tested was then calculated versus control (no conjugate) cultures. If no salt is indicated, the free conjugate was tested.

The subject of series [3] is DuPRO cells. Nature of the series: In vitro cytotoxicity of peptidyl derivatives of doxorubicin, Alamar Blue assay, DuPRO cells. It is filed as cell-based. The conditions noted are these: DuPRO cells (value in parentheses in the LNCaP column), 72 HRS incubation, read-out: Cell Kill in 72 HRS EC 50 (µM), DuPRO. The protocol:
as §1
A general note: The colour change of resazurin is a common sign of viable cells or microbes.

Non-standard residues stand in square brackets, D forms with d. Residues, ends and D or L forms follow the SMILES beside them. *: point of attachment. Doxorubicin(3'-N) = COc1cccc2c1C(=O)c1c(O)c3c(c(O)c1C2=O)C[C@@](O)(C(=O)CO)C[C@@H]3O[C@H]1C[C@H](N*)[C@H](O)[C@H](C)O1; Hyp = O=C(O)[C@@H]1C[C@@H](O)CN1; tBuAla = CC(C)(C)C[C@H](N)C(=O)O; Chg = N[C@H](C(=O)O)C1CCCCC1 Some results are limits rather than exact numbers.

T1 sequence (P07288 25-261): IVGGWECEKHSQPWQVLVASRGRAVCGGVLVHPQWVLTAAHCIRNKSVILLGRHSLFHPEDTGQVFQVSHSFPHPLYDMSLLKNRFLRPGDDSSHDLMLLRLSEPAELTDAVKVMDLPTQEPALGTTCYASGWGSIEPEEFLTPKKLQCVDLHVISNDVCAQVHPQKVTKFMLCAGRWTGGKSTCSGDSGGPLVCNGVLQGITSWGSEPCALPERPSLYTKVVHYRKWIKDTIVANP

In the case of `COc1cccc2c1C(=O)c1c(O)c3c(c(O)c1C2=O)C[C@@](O)(C(=O)CO)C[C@@H]3O[C@H]1C[C@H](NC(=O)[C@H](CC(C)C)NC(=O)[C@H](CO)NC(=O)[C@H](CCC(N)=O)NC(=O)[C@@H](NC(=O)[C@H](CO)NC(=O)[C@H](C)NC(=O)[C@@H]2C[C@@H](O)CN2C(C)=O)C2CCCCC2)[C@H](O)[C@H](C)O1` [Ac-(4-trans-L-Hyp)ASChgQ-SL-DOX (3'), [N-Ac-(4-trans-L-Hyp)]-Ala-Ser-Chg-Gln-Ser-Leu-Dox] (HELM PEPTIDE1{[ac].[Hyp].A.S.[O=C([C@@H](N[*:1])C1CCCCC1)[*:2]].Q.S.L.[COc1cccc2c1C(=O)c1c(O)c3c(c(O)c1C2=O)C[C@@](O)(C(=O)CO)C[C@@H]3O[C@H]1C[C@H](N[*:1])[C@H](O)[C@H](C)O1]}$$$$V2.0), the “Time to 50% Substrate Cleavage by PSA” value in series [1] amounted to 20 min. Besides, the values for the EC50 in series [2] and in series [3] were 4.5 µM and 90 µM, respectively.

For `COc1cccc2c1C(=O)c1c(O)c3c(c(O)c1C2=O)C[C@@](O)(C(=O)CO)C[C@@H]3O[C@H]1C[C@H](NC(=O)[C@H](CC(C)(C)C)NC(=O)[C@H](CO)NC(=O)[C@H](CCC(N)=O)NC(=O)[C@@H](NC(=O)[C@H](CO)NC(=O)[C@H](C)NC(=O)[C@@H]2C[C@@H](O)CN2C(C)=O)C2CCCCC2)[C@H](O)[C@H](C)O1` [Ac-(4-trans-L-Hyp)ASChgQ-StBuAla-DOX (3')] (Ac-[Hyp]AS[Chg]QS[tBuAla]-{Doxorubicin(3'-N)}), in series [1], the “Time to 50% Substrate Cleavage by PSA” value came to 25 min. Also, the EC50 in series [2] is 100 µM; in series [3] it was more than 100 µM.

As to Ac-(4-trans-L-Hyp)ASChgQ-SThi-DOX (3'), the “Time to 50% Substrate Cleavage by PSA (Min)” value in series [1] is given as “INSOLUBLE”.

“PEG(2)-(4-trans-L-Hyp)ASChgQ-SL-DOX (3')”: the “Time to 50% Substrate Cleavage by PSA” value in series [1] amounted to 20 min.

These data come from patent EP0942754B1, “CONJUGATES USEFUL IN THE TREATMENT OF PROSTATE CANCER” (priority 1996, dated 1998).
